Values quoted from earlier work as cited in publication PMC3792011 (Clinical Pharmacology : Advances and Applications, 2013).
“And” between values parts separate entries of the source, which are not always exact repeats. Identical values can stand only once.

How the values were obtained:
[1] = treatment guidelines
[2] = steady state; bibliographic data

Recommended upper limit of plasma concentration (risk of hyperbilirubinemia) [1]: < 1.1 µmol/L
AUC, geometric mean (CV %) [2]: 65.4 (0.1) μmol · h/L
AUC, mean (SD) [2]: 76.4 (50.1) μmol · h/L
Cmax_SS_ATZ, geometric mean (CV %) [2]: 6.2 (0.1) μmol/L
Cmax_SS_ATZ, mean (SD) [2]: 7.4 (4.3) μmol/L
Cmin_SS_ATZ, geometric mean (CV %) [2]: 0.9 μmol/L and 0.9 (0.1) μmol/L
Cmin_SS_ATZ, mean (SD) [2]: 1.2 (1.2) μmol/L
T-half, mean (SD) [2]: 8.6 (2.3) h
Compound: COC(=O)N[C@H](C(=O)N[C@@H](Cc1ccccc1)[C@@H](O)CN(Cc1ccc(-c2ccccn2)cc1)NC(=O)[C@@H](NC(=O)OC)C(C)(C)C)C(C)(C)C [ATZ, Atazanavir]
